Six compounds from patent US20080175801A1, “Stable peroxide containing personal care compositions” (The Procter & Gamble Company, priority 2007, published 2008) can be followed below.

A short description of the first data set: Accelerated stability of flavor components in peroxide mouthrinse, measured by gas chromatography. In kind it is physicochemical.
Conditions: not given
On the procedure: The stability of the present compositions was assessed by measuring any changes in levels of peroxide, active component (cetylpyridinium chloride) and flavor components under storage conditions at 40° C. and 75% Relative Humidity.
A flavor mix consisting of Ethylbutyrate, Limonene, Decanal, Methylsalicylate, Carvone and Anethole (each flavor component at 0.005%) was added to the compositions. The resulting mouthrinse formulations were packaged in 500 ml PET bottles and placed on accelerated stability test chamber at 40° C. and 75% Relative Humidity conditions. The amount of peroxide in the samples was measured using the method described above and no significant changes were detected. However, radical activity was greater in the untreated sample vs. the treated sample as evidenced in greater degradation of flavor components in the untreated sample. The amount of each flavor component at time 0, 17 and 31 days was evaluated by gas chromatography (GC). Results are summarized in Table 2 below showing % reduction of each component and total flavor at days 17 and 31 from day 0. […] The treatment also […].
Formulation IA with Glass H polyphosphate as radical scavenger was compared with a sample of formulation IB (no radical scavenger) that was not treated to remove metals. […] The resulting mouthrinse formulations were packaged in 500 ml PET bottles and placed on accelerated stability test chamber at 40° C. and 75% Relative Humidity. The amount of each flavor component at time 0, 17 and 31 days were measured by gas chromatography (GC).
Turning to `CC=Cc1ccc(OC)cc1` [Anethole], the “Effect of polyphosphate radical scavenger on stability of flavor component” value (“Effect” for short) is recorded as “increased stability” and the “Stability of flavor component in the presence of peroxide” value (from here on “Stability … of peroxide”) is given as “significant decomposition”.
For the compound `CCCCCCCCCC=O` [Decanal], the “Effect” value is reported as “increased stability” and the “Stability … of peroxide” value is given as “significant decomposition”.
Take `CCCC(=O)OCC` [Ethylbutyrate]: the “Effect” value is on record as “increased stability”.
As to `COC(=O)c1ccccc1O` [Methylsalicylate], the “Stability … of peroxide” value was “relatively stable”.

The same data set, now with this note: Formula IA with Glass H polyphosphate radical scavenger; 40° C., 75% RH; component at 0.005%.
As to `CC=Cc1ccc(OC)cc1` [Anethole], the “% Reduction at day 17, Formula IA” value is listed as 60% and the “% Reduction at day 31, Formula IA” value was 80%.
The matching figures for `C=C(C)C1CC=C(C)C(=O)C1` (stereo not drawn) [Carvone]: 50% and 50%.
On to `CCCCCCCCCC=O` [Decanal], for which the “% Reduction at day 17, Formula IA” value is on record as 20% and the “% Reduction at day 31, Formula IA” value is on record as 40%.
In the case of `CCCC(=O)OCC` [Ethylbutyrate], the “% Reduction at day 17, Formula IA” value is on record as 0% and the “% Reduction at day 31, Formula IA” value stood at 0%.
Take `C=C(C)[C@H]1CC=C(C)CC1` [Limonene]: the “% Reduction at day 17, Formula IA” value worked out at 25% and the “% Reduction at day 31, Formula IA” value was determined as 25%.

The same data set, now with this note: Formula IB, no radical scavenger, not treated to remove metals; 40° C., 75% RH; component at 0.005%.
On to `CC=Cc1ccc(OC)cc1` [Anethole], for which the “% Reduction at day 17, Formula IB” value turned out to be 100% and the “% Reduction at day 31, Formula IB” value is given as 100%.
As to `C=C(C)C1CC=C(C)C(=O)C1` (stereo not drawn) [Carvone], the “% Reduction at day 17, Formula IB” value was found to be 20% and the “% Reduction at day 31, Formula IB” value is 20%.
On to `CCCCCCCCCC=O` [Decanal], for which the “% Reduction at day 17, Formula IB” value is 80% and the “% Reduction at day 31, Formula IB” value stood at 80%.
`CCCC(=O)OCC` [Ethylbutyrate]: the “% Reduction at day 17, Formula IB” value came out at 20% and the “% Reduction at day 31, Formula IB” value turned out to be 20%.
Turning to `C=C(C)[C@H]1CC=C(C)CC1` [Limonene], the “% Reduction at day 17, Formula IB” value is reported as 100% and the “% Reduction at day 31, Formula IB” value was 100%.

Staying with this data set, now noted: formulation IB treated with polymer supported chelant; 40° C., 75% RH; component at 0.005%; vs day 0.
In the case of `CC=Cc1ccc(OC)cc1` [Anethole], the “% Reduction at day 17, Treated” value came out at 60% and the “% Reduction at day 31, Treated” value was 80%.
The matching figures for `C=C(C)C1CC=C(C)C(=O)C1` (stereo not drawn) [Carvone]: 20% and 20%.
The matching figures for `CCCCCCCCCC=O` [Decanal]: 25% and 75%.
As to `CCCC(=O)OCC` [Ethylbutyrate], the “% Reduction at day 17, Treated” value turned out to be 25% and the “% Reduction at day 31, Treated” value worked out at 25%.
For `C=C(C)[C@H]1CC=C(C)CC1` [Limonene], the “% Reduction at day 17, Treated” value is given as 75% and the “% Reduction at day 31, Treated” value is listed as 75%.

The same data set, now with this note: formulation IB untreated; 40° C., 75% RH; component at 0.005%; vs day 0.
Regarding `CC=Cc1ccc(OC)cc1` [Anethole], the “% Reduction at day 17, Untreated” value stood at 100% and the “% Reduction at day 31, Untreated” value is recorded as 100%.
On to `C=C(C)C1CC=C(C)C(=O)C1` (stereo not drawn) [Carvone], for which the “% Reduction at day 17, Untreated” value is 20% and the “% Reduction at day 31, Untreated” value worked out at 20%.
Turning to `CCCCCCCCCC=O` [Decanal], the “% Reduction at day 17, Untreated” value is 80% and the “% Reduction at day 31, Untreated” value is 80%.
For the compound `CCCC(=O)OCC` [Ethylbutyrate], the “% Reduction at day 17, Untreated” value was 20% and the “% Reduction at day 31, Untreated” value was found to be 20%.
In the case of `C=C(C)[C@H]1CC=C(C)CC1` [Limonene], the “% Reduction at day 17, Untreated” value is recorded as 100% and the “% Reduction at day 31, Untreated” value is 100%.

The data set is the same for the next values; noted with them: in words; formulation IA vs untreated IB, 40° C., 75% RH.
As to `C=C(C)[C@H]1CC=C(C)CC1` [Limonene], the “Effect” value is given as “increased stability”.

Still in this data set, the particulars now being: in words; formulation IB, 40° C., 75% RH.
With `C=C(C)[C@H]1CC=C(C)CC1` [Limonene], the “Stability … of peroxide” value is given as “significant decomposition”.
